Data taken from US9259000B2, “Auxin biosynthesis inhibitor” (Riken, priority 2011, dated 2016).

Columns and labels:
Type in all cases: in vivo
Arabidopsis = test: Growth recovery test with IAA, Arabidopsis; conditions: 8 days
Description: Arabidopsis was cultured in a plate vertically set and using ½ MS medium containing 1.5% sucrose, 0.8% agar (0.6% Gelrite in the case of KOK1169), the compound of the present invention and IAA under continuous white light at 22° C. for 8 days. […] In the test, KOK1101 (30 μM), KOK1160 (30 μM), KOK1165 (30 μM), and KOK1169 (100 μM) were studied.

Lettuce = test: Growth test, Lettuce; conditions: 30 μM, 6 days
Description: Lettuce was cultured in a plate vertically set and using ½ MS medium containing 1.5% sucrose, 0.8% agar and KOK1101 (30 μM) under continuous white light at 25° C. for 6 days.

Tobacco = test: Growth test, Tobacco; conditions: compound 100 μM, 7 days after transfer
Description: Tobacco was cultured in a plate vertically set and using ½ MS medium containing 1.5% sucrose and 0.8% agar under continuous white light at 25° C. for 7 days. Thereafter, tobacco was transferred to a plate vertically set and using ½ MS medium containing 1.5% sucrose, 0.8% agar and the compound of the present invention (100 μM) and cultured under continuous white light at 25° C. for 7 days.

Rice (Nipponbare) = test: Growth test, Rice; conditions: 50 μM, 6th day after transfer, vs DMSO control
Tomato (Momotaro) = test: Growth test, Tomato; conditions: 100 μM, 6th day after transfer, vs DMSO control
[1] = tested on: Physcomitrella patens subsp. patens; test: Growth test, Physcomitrella patens subsp. patens; conditions: 100 μM, 7th day after transfer, vs DMSO control
[2] = compound 100 μM + IAA 10 nM, 0.6% Gelrite

For `COC(=O)[C@H](Cc1ccccc1)ON1C(=O)c2ccccc2C1=O` [KOK 1101], the “main root elongation, recovery by simultaneous application with IAA” value (“main root elongation, recovery” for short) (Arabidopsis; compound 30 μM + IAA 10 nM) was “recovered”, the “growth of an aerial part, recovery by simultaneous application with IAA” value (shortened to “growth of an aerial part, recovery”) (Arabidopsis; compound 30 μM + IAA 100 nM) was “recovered” and the “growth of the aerial part” value (Lettuce) was “Apparent growth inhibition”. For the same compound, the “main root elongation (underground part)” value (Lettuce) was “promotion” and the “root hair formation (underground part)” value (Lettuce) was “inhibition”.
With `COC(=O)[C@H](Cc1cccc2ccccc12)ON1C(=O)c2ccccc2C1=O` [KOK 1160] the “growth of an aerial part, recovery” value (Arabidopsis; compound 30 μM + IAA 10 nM) was “recovered” and the “main root elongation, recovery” value (Arabidopsis; compound 30 μM + IAA 10 nM) was “recovered”.
For `COC(=O)[C@H](Cc1ccc2ccccc2c1)ON1C(=O)c2ccccc2C1=O` [KOK 1165], the “growth of an aerial part, recovery” value (Arabidopsis; compound 30 μM + IAA 10 nM) was “recovered” and the “main root elongation, recovery” value (Arabidopsis; compound 30 μM + IAA 10 nM) was “recovered”.
With `NO[C@@H](Cc1cccc2ccccc12)C(=O)O` [KOK 1167] the “Note (morphology)” value (Tobacco) was “Auxin-excess like morphology”.
In the case of `COC(=O)[C@H](Cc1ccc2ccccc2c1)ON` [KOK 1168], the growth of seedling (Rice (Nipponbare)) is reported as “remarkably inhibited”, the growth of seedling (Tomato (Momotaro)) is reported as “remarkably inhibited” and the differentiation into forage [1] is reported as “inhibited”. For the same compound, the growth of protonemata [1] was “remarkably inhibited”.
With `NO[C@@H](Cc1ccc2ccccc2c1)C(=O)O` [KOK 1169] the “growth of an aerial part, recovery” value (Arabidopsis; [2]) was “recovered” and the “main root elongation, recovery” value (Arabidopsis; [2]) was “recovered”.
For `NOC(Cc1cccc(Cl)c1)C(=O)O` (centres unmarked) [KOK 1187], the “Note (morphology)” value (Tobacco) was “Auxin-excess like morphology”.
